This is an account of results in patent US5235045A, “Non-azo naphthalimide dyes” (priority 1992, dated 1993).

The test system of series [1] is H9 cells. Kind of series: Cell viability in absence of light (trypan blue exclusion). In kind it is cell-based, human. As to conditions: dark. The source says:
(§1) Following the protocol of (1), above, H9 cells were stained with Compound lb, and the technique of fluorescent microscopy was used to determine visually the sites of localization of dye fluorescence in living cells. Specifically, H9 cells were counted with a hemocytometer and diluted to 5×10^5 /ml. […] Cytospin slides of the cell suspensions were made and they were examined with the fluorescence microscope (Olympus AH-2) using B excitation plus a 460 nm interference excitation filter and a 495 nm emission filter. The cells were also counted with a hemocytometer and their viability determined (see below). […] The former may reflect the diffusional component of the dye incorporation, or may reflect binding in the ER membrane. The latter may indicate lysosomal localization of pinocytosed dye as occurs with Lucifer Yellow.
(§2) Cell viability was determined using dye incorporated according to the protocol directly above. Viability was determined using a trypan blue dye exclusion test in which "live" cells with competent cell membranes exclude the dye. Table 5 summarizes the data obtained using cells exposed to Compound 1b in culture medium, and Table 6 summarizes data obtained using cells exposed to Compound VII.

Assay in series [2]: as above
It counts as cell-based, human. To be noted: dark.
Description: as §1, §2

The subject of series [3] is Vero cells. Kind of series: Cellular toxicity in Vero cells (viral-medium suspension samples). It counts as cell-based. As for the experimental part:
(§3) Each sample including the stock virus were assayed on Vero cells for PFU/ml of HSV-1. The assay consisted of growing Vero cells in minimal essential medium with Hanks balanced salt solution supplemented with 10% fetal bovine serum, L-glutamine and antibiotics. Hepes buffer (2%) was added for growth in open plates (twelve well microplates from CO-star). Ten fold dilutions of each sample were prepared and 0.1 ml of the appropriate dilution for each individual sample was adsorbed at 37° C. for 1.5 hr. on a cell monolayer from which the growth medium had been removed. After the adsorption period, the cell monolayer was washed and an overlay consisting of equal volumes of 2X strength L-15 medium and 2% methylcellulose was added. Following an appropriate incubation time at 37° C. (about 4 days), the overlay medium was removed. Monolayers were fixed with methanol and stained with giemsa to elaborate the presence of plaques. The plaques were counted using a dissecting microscope at a magnification of 20X.
as §3, with “Co-star).” for “CO-star).”

The nature of series [4]: Bleaching and recovery of fluorescence in aqueous suspension of Cremophor EL. It counts as physicochemical. As to conditions: for % Un-irradiated Fluorescence / initially activated species permanently losing fluorescence / initially activated species recovering fluorescence: Cremophor EL. As to the method:
A 14.9 millimolar stock solution of Ed6Br in Cremophor EL was used to make 3 ml of a micellar Cremophor suspension having a concentration averaged over the entire sample volume of […]. A […] aliquot was removed and diluted with 2.9 ml of distilled water for measurement of fluorescence using an SLM 500C spectrofluorometer (excitation, 420 nm, emission, 520 nm). The 3 ml sample was divided into two 1.5 ml aliquots placed in quartz crusetts. One sample was irradiated with stirring with 420 # 5 nm filtered light from a xenon arc lamp with an irradiance of 20 mW/cm^2 and with the companion sample wrapped in aluminum foil (dark control) and maintained alongside of the irradiated sample. […] After the entire light treatment, both the illuminated and dark control samples were divided into two equal aliquots and held pairwise (dark+previously illuminated) at 4° C. and 20° C. in the absence of light. Aliquots of […] were taken from each sample after 18 and 43 hr and their fluorescence emission values determined using the SLM 500C instrument immediately after sampling.
In an experiment eventually following the protocol described immediately above in Part I (for Ed6Br), the light-induced bleaching of DiEd6Br with 200 J/cm^2 light exposure and recovery of its fluorescence upon standing in the dark at 22° C. were determined.

Where [5] appears, read: 5 μM, medium 1.5 hours, counted 2.5 hours after.
[6] abbreviates: 25 μM, medium 1.5 hours, counted 2.5 hours after.
The mark [7] stands for this setting: 1 μM, 100% human plasma 4 hours, 1 hour after.
Setting [8] is: 1 μM, medium 24 hours, 1 hour after.
Setting [9] is: 5 μM, 100% human plasma 4 hours, 1 hour after.
The mark [10] stands for this setting: 10 μM, medium 24 hours, 1 hour after.
Setting [11] is: 25 μM, 100% human plasma 4 hours, 1 hour after.
[12] abbreviates: 25 μM, medium 24 hours, 1 hour after.
Where [13] appears, read: 50 μM, medium 24 hours, 1 hour after.

Turning to `CCCCCCNc1ccc2c3c(cccc13)C(=O)N(CCCCCC)C2=O` [Compound 1b, 4-(hexyl)amino-N-hexyl-1,8-naphthalimide], the dead cells in series [1] (setting [5]) and in series [1] (setting [6]) was 4 each time. Moreover, the live cells was 116 in series [1] (setting [5]) and 136 in series [1] (setting [6]). The viability (in general, a per cent measure of how many cells are alive, often set against a control) at 1.5 h, 5 µM in series [2] (human, 5 μM, medium 1.5 hours, counted 2.5 hours after) came out at 96.7%. The molecule also had a viability at 1.5 h, 25 µM in series [2] (human, 25 μM, medium 1.5 hours, counted 2.5 hours after) of 97.1%.

With `CCCCCCNc1c(Br)cc2c3c(cccc13)C(=O)N(CCCCCC)C2=O` [Compound VII, 3-bromo-4-(hexyl)amino-N-hexyl-1,8-naphthalimide], the dead cells in series [1] (setting [7]) was determined as 12; in series [1] (setting [8]), 23; in series [1] (setting [9]), 16; in series [1] (setting [10]), 26; in series [1] (setting [11]), 16; in series [1] (setting [12]), 38. The dead cells in series [1] (setting [13]) amounted to 128. Moreover, the live cells was determined as 280 in series [1] (setting [7]); 151 in series [1] (setting [8]); 286 in series [1] (setting [9]); 104 in series [1] (setting [10]); 339 in series [1] (setting [11]); 148 in series [1] (setting [12]). Also, the live cells in series [1] (setting [13]) is given as 124. For the same molecule, the viability at 4 h, 1 µM in series [2] (setting [7]) was 95.9%. Besides, the viability at 4 h, 5 µM in series [2] (setting [9]) was determined as 94.7%. This molecule also displayed a viability at 4 h, 25 µM in series [2] (setting [11]) of 95.5%. Besides, the viability at 24 h, 1 µM in series [2] (human, 1 μM, medium 24 hours, 1 hour after) came out at 86.8%. In series [2] (human, 10 μM, medium 24 hours, 1 hour after), this molecule had a viability at 24 h, 10 µM of 80%. In series [2] (human, 25 μM, medium 24 hours, 1 hour after), this molecule had a viability at 24 h, 25 µM of 79.6%. Also, the viability at 24 h, 50 µM in series [2] (human, 50 μM, medium 24 hours, 1 hour after) is 42.5%. The cellular toxicity result in series [3] (Ed6Br, 8 concentrations, not irradiated) was “no evidence of cellular toxicity”. In series [3] (two concentrations, vs irradiated samples), the “cellular toxicity of not previously irradiated samples” value was “significantly less cellular toxicity than the irradiated samples”. Further, the “% Un-irradiated Fluorescence” value in series [4] (0 J/cm^2) came to 100%; in series [4] (10 J/cm^2, 420 nm) it was 97.8%; in series [4] (25 J/cm^2, 420 nm), 96.2%; in series [4] (50 J/cm^2, 420 nm), 74.9%; in series [4] (90 J/cm^2, 420 nm), 48.7%; in series [4] (200 J/cm^2, 420 nm), 18.2%. Moreover, the “Fluorescence Recovery in Dark” value is 18.2% in series [4] (0 hour, 4° C.); 18.2% in series [4] (0 hour, 22° C.); 24.6% in series [4] (18 hour, 4° C.); 39.4% in series [4] (18 hour, 22° C.); 36.8% in series [4] (43 hour, 4° C.); 56.7% in series [4] (43 hour, 22° C.). For the same molecule, in series [4] (200 J/cm^2), the “irradiation induced loss of fluorescent intensity” value is “about 80%”. Also, the “initially activated species permanently losing fluorescence” value in series [4] is on record as “Approximately 50%”. In addition, the “initially activated species recovering fluorescence” value in series [4] is reported as “Approximately 50%”. In addition, in series [4] (after 200 J/cm^2), the “ultimate fluorescent intensity regained, of initial” value is “approximately 40%”. Moreover, the “change of fluorescence emission intensity in absence of light” value in series [4] (dark) is “lack of change of the value of fluorescence emission intensity”.

Take `CCCCCCN1C(=O)c2cccc3c(NCCNC(=O)CCCCC(=O)NCCNc4c(Br)cc5c6c(cccc46)C(=O)N(CCCCCC)C5=O)c(Br)cc(c23)C1=O` [Compound XLIV]: the cellular toxicity entry in series [3] (DiEd6Br, 2 concentrations, not irradiated (Table 18 experiment)) is recorded as “no evidence of cellular toxicity”; in series [3] (DiEd6Br, 8 concentrations, not irradiated (Table 15 experiment)) it was “no evidence of cellular toxicity”; in series [3] (DiEd6Br, 8 concentrations, not irradiated (Table 16 experiment)), “no evidence of cellular toxicity”. Moreover, the “fluorescence, % of initial (dark) value” in series [4] (200 J/cm^2, 420 nm) stood at 32.2%. For the same molecule, the “fluorescence recovered, % of initial value” in series [4] (70 hours at 22° C.) came out at 62.7%; in series [4] (166 hours at 22° C.) it was 64.0%. Besides, the “initially activated species permanently losing fluorescence” value in series [4] is reported as “Approximately 50%”. Also, the “initially activated species recovering fluorescence” value in series [4] is reported as “Approximately 50%”.
